From article doi:10.1101/2024.05.17.594634, “Protein Structure Inspired Drug Discovery” (bioRxiv, 2024)

Experiments:
HT29 colon cancer cells = assay: Eight-day colony formation assay, HT29; format: cell-based, human
Method: (§1) We sought to identify compounds that would inhibit the growth of cancer cells, but that also did so selectively. Inhibition of cancer cell growth is a highly sought after attribute of anticancer agents. This was assessed by measuring the ability of a compound to inhibit cell growth in eight-day colony formation assays, examining concentrations ranging from 0.017 to 40 μM. Breast, colon, lung and prostate cancer are four of the most common causes of cancer in the United States, are major causes of cancer cell death, and were examined.[64] Two cell lines for each cancer type were assessed: A549 (adenocarcinoma) and H226 (squamous carcinoma) for lung, MCF-7 (estrogen receptor [ER] positive) and MDA-MB-231 (ER negative) for breast, LNCaP (androgen receptor [AR] positive) and PC3-M (AR negative) for prostate, and HCT116 (wild type p53, mutated KRAS) and HT29 (p53 mutant) for colon.[65]
(§2) In considering effect on cancer cells, for each compound and each cell line tested we calculated the efficacy ratio, i.e., efficacy ratio = (percent of remaining cancer cell colonies)/(percent of remaining bone marrow colonies), at 8 days after treatment with 40 μM compound (S4 Fig). We considered those with an efficacy ratio below 0.5 as active and at least partially selective. The stringency of this is highlighted by considering the effect of 5FU on colon cancer, where it is frequently used clinically in proven curative settings, as well as proven life prolonging settings.[70, 71] […] Even at 5.7 μM, where 5FU is toxic to bone marrow, with hematopoietic colony formation at 38% of control, the efficacy ratio for HT29 cells has only dropped to 0.52. […] It can be seen that compounds segregate to protein sites. Specifically, of 10 compounds meeting this activity criteria (i.e., efficacy ratio <0.5), 3 were directed at the Dxr2 site, 3 at FolC2, 2 at FolC1, 1 at Dxr1 and 1 at TYLT.
(§3) Eight-day colony formation assays of cancer cells were performed as described by us.[87] Briefly, 0.5–1.0 × 10^3 cells were seeded into a 12 well plate, after 24 hours compound added and eight days later colonies (of 3 or more cells) were scored after trypan blue staining. Conditions were in replicates of N = 2. All compounds were stored under desiccated conditions in a sealed container at minus 20°C upon arrival. One day prior to use, they were placed into DMSO, stored at […] as stock solutions, thawed just prior to use, and not reused.

M14 cells = assay: Cell cycle analysis by flow cytometry, M14; format: cell-based, human; details: 20 nM, eight days
Method: Fig 8. Dxr2-017 inhibits melanoma cell growth through induction of anoikis. (A) Inhibition of melanoma cell growth. Cells were treated with different concentrations of Dxr2-017 and formation of colonies at eight days depicted. Data are expressed as percent of untreated control and are the mean ± SEM (N=3 replicates) of a single experiment. (B) No effect on cycle progression. M14 and SK-MEL-5 cells were treated for 8 days with 20 and 50 nM Dxr2-017, respectively, and phase of cell cycle determined by flow cytometry. Data are the mean ± SEM (N=3). *denotes P-value ≤0.05. (C) Transition to floating cells. Cells were treated for three days with different Dxr2-017 concentrations. Depicted are representative light photomicrographs at 20X; scale bar is150 μm. Blue and green arrows denote adherent and floating cells, respectively. (D) Cleaved caspase 3 is induced in floating cells. Cells were treated for 3 days, cell lysate from only adherent cells, or from adherent and floating cells combined, was probed by Western blot for cleaved caspase 3. All experiments were repeated at separate times, yielding similar results.
A total of 1 × 10^4 M14 cells and 1 × 10^4 SK-MEL-5 cells were seeded into 10 cm culture dishes. […] Cells were analyzed by flow cytometry (FACSCalibur3 analyzer, BD Biosciences), and the percentage of cells within G0/G1, S, and G2/M phases were determined via analysis using Modfit LT 4.0.5.

human CD34+ stem cells = assay: Bone marrow stem cell (hematopoietic) colony formation assay; format: cell-based
Method: In parallel with measuring growth inhibition of cancer cell growth, we measured effect on human hematopoietic stem cells. Hematopoietic stem cells reside in the bone marrow and are the source of mature cells present in blood.[66] Bone marrow is one of the most sensitive organs in the body to drug toxicity, especially so for anticancer drugs where it can approach 100%.[67–69] Bone marrow toxicity was measured by performing hematopoietic colony formation assays on human CD34+ stem cells. The stem cell nature of this assay permitted assessment of trilineage colony formation: granulocytic (white blood cells), erythrocytic (red blood cells) and megakaryocytic (platelets), measured by the formation of CFU-GM (colony-forming-granulocyte-macrophage), BFU-E (erythroid burst-forming unites) and CFU-GEMM (colony-forming unit-granulocyte, erythrocyte, monocyte, megakaryocyte) colonies, respectively. Two measurements were taken. Total colonies at eight days were measured, thereby matching the eight-day time frame of cancer cell colony formation assays. At fourteen days, individual colonies have differentiated, permitting quantification of each lineage. Human hematopoietic stem cell trilineage colony formation assays were performed as previously described by us.[65] Briefly, human cord blood CD34+ cells (catalog #: 70008.5) were purchased from StemCell Technology Inc., and seeded at 1 × 10^4 cells per 35 mm dish. Cells were cultured in MethoCult™ Express (StemCell Technologies, Inc.) semisolid media, per manufacturer’s instructions, in the presence of compound or vehicle control. At eight days colonies, i.e., groups of ≥ 10 cells, were counted. At fourteen days, individual colonies of BFU-E, CFU-GM and CFU-GEMM were identified based on manufacturers’ morphologic characterization criteria. Assays were run in replicates of N = 2; some were run in replicates of N = 3, as denoted.

H226 lung cancer cells = assay: Eight-day colony formation assay, H226; format: cell-based, human
Method: as §1, §2, §3

A549 lung cancer cells = assay: Eight-day colony formation assay, A549; format: cell-based, human
Method: as §1, §2, §3

mean number of colonies, % of control, 14 day (human CD34+ stem cells; 40 μM compound, 14 days, mean N=2): 57 % of control | mean number of colonies, % of control, 8 day (human CD34+ stem cells; 40 μM compound, total colonies at 8 days, mean N=2): 70 % of control | decrease of BFU-E compared to control (human CD34+ stem cells; 40 μM, 14 day): 97.1 ± 4.1% | decrease of CFU-G/M compared to control (human CD34+ stem cells; 40 μM, 14 day): 49.8 ± 0.0% | increase of CFU-GEMM compared to control (human CD34+ stem cells; 40 μM, 14 day): 16.1 ± 12.0% | inhibition of 14-day total colony formation (human CD34+ stem cells; 40 μM, 14 day): 42.6 ± 5.8%
Compound: c1ccc2sc(-c3ccc(CNc4ccc5nnnn5n4)o3)nc2c1 [Dxr2-017]
efficacy ratio (cancer cell colonies to bone marrow colonies at 8 days) (HT29 colon cancer cells; 5.7 μM): 0.03 | efficacy ratio (cancer cell colonies to bone marrow colonies at 8 days) (HT29 colon cancer cells; 40 μM): 0.00 | inhibition at 0.12 µM (HT29 colon cancer cells; Homo sapiens, HT-29, 0.12 μM, mean ± SD, read-out: inhibition of colony formation compared to control): 91.1 ± 4.8% | change in cell cycle parameters (M14 cells): little-to-no change in cell cycle parameters | efficacy ratio (cancer cell colonies to bone marrow colonies at 8 days) (H226 lung cancer cells; 5.7 μM): 0.12 | efficacy ratio (cancer cell colonies to bone marrow colonies at 8 days) (H226 lung cancer cells; 40 μM): 0.02 | efficacy ratio (cancer cell colonies to bone marrow colonies at 8 days) (A549 lung cancer cells; 5.7 μM): 1.26 | efficacy ratio (cancer cell colonies to bone marrow colonies at 8 days) (A549 lung cancer cells; 40 μM): 0.07
